Experiments:
[1] = tested on: erythrocyte membrane ghost; assay: Antioxidative activity: erythrocyte membrane ghost oxidation (TBA reaction); assay type: biochemical, rabbit
Description: The antioxidative activity of sphingomyelin was measured according to the method of Osawa et al. (J. Agric. Food Chem., vol. 35, pp. 809-812, 1987). Specifically, preserved rabbit blood was mixed with an equal amount of an isotonic solution (10 mM phosphate buffer/152 mM sodium chloride, pH 7.4), followed by centrifugation at 1,500×g (3,500 rpm) at 4° C. for 20 minutes. Blood corpuscles washed by repeating this procedure three times were mixed with an equal amount of a hypotonic solution (10 mM phosphate buffer, pH 7.4), followed by centrifugation at 20,000×g (11,000 rpm) at 4° C. for 40 minutes. Then, loose pellets (erythrocyte membrane ghost) obtained by repeating this procedure four times were used to examine antioxidative activity. […] An oxidation reaction was performed by the addition of an oxidizing agent. Subsequently, a TBA reaction was performed. Then, absorbance at 532 nm was measured to quantify an oxidation product.

[2] = tested on: enteropathogenic E. coli O-157; assay: Test I on prevention of enteropathogenic E. coli O-157 infection; assay type: in vivo; conditions: BALB/c germ-free mice, 5 mg/day oral
Description: Test I on prevention of enteropathogenic E. coli O-157 infection
The intake of sphingomyelin was 5 mg/day. On the 3rd day from the start of taking, the mice were infected with enteropathogenic E. coli O-157 by oral administration at a dose of 8.5×10^6 cfu/mouse. After infection, the mice were also allowed to orally take sphingomyelin on a daily basis. […] The survival rate of the […] depending on the number of days after the administration of enteropathogenic E. coli O-157 is shown in Table 7. As is evident from the results of Table 7, the survival rate of the germ-free mice was enhanced by the administration of sphingomyelin.

sphingomyelin was tested, and the “absorbance at 532 nm (oxidation product) with respect to absence of added sphingomyelin defined as 100%” value (from here on “absorbance at 532 nm … as 100%”) ([1]; sample concentration 0.01 mM, lower = higher antioxidative activity) was 98%, the “absorbance at 532 nm … as 100%” value ([1]; sample concentration 0.1 mM) was 95% and the “absorbance at 532 nm … as 100%” value ([1]; sample concentration 1 mM) was 80%. For the same substance, the “absorbance at 532 nm … as 100%” value ([1]; sample concentration 10 mM) was 61%, the Survival rate ([2]; 0 days after administration of E. coli) was 100% and the Survival rate ([2]; 2 days after administration of E. coli) was 100%. For the same substance, the Survival rate ([2]; 4 days after administration of E. coli) was 100%, the Survival rate ([2]; 6 days after administration of E. coli) was 80% and the Survival rate ([2]; 8 days after administration of E. coli) was 70%.

From patent US8486916B2, “Medicine, food and drink or feed containing sphingomyelin” (Megmilk Snow Brand Co., Ltd., priority 2005, dated 2013)
